Assay results published in article PMC10610505, “Synthesis and Biological Evaluation of Some New 3-Aryl-2-thioxo-2,3-dihydroquinazolin-4(1H)-ones and 3-Aryl-2-(benzylthio)quinazolin-4(3H)-ones as Antioxidants; COX-2, LDHA, α-Glucosidase and α-Amylase Inhibitors; and Anti-Colon Carcinoma and Apoptosis-Inducing Agents” (Pharmaceuticals, 2023).

What was measured:
Bcl-2 gene = experiment: qRT-PCR expressional level of Bcl-2 gene; assay type: cell-based, human; conditions: 10 µg/mL, 24 h, HCT-116, vs negative control
Protocol: Considering these facts, enhancing apoptosis has been extensively studied as a potential drug target in cancer therapy, therefore, in this study, we investigated the effects of the most cytotoxic compounds, 3a and 3f, (at 10 µg/mL, 24 h incubation) on the expressional levels of these apoptotic regulator genes (Bax and Bcl-2) using quantitative reverse transcription–polymerase chain reactions (qRT-PCR).
(§1) Briefly, in a 25 mL flask (1 × 10^6 cells/flask), the human colon cancer cell lines (HCT-116 and LoVo) were grown for 24 h. After replacing the culture media with a medium containing 1% FBS for 24 h, the cells were treated with 10 µg/mL of each tested compound in 2 mL of fresh medium containing 1% FBS, or 0.25% DMSO, which was used as the negative control. The cells were adherent cells and they were detached using trypsin after being washed with ice-cold phosphate-buffered saline (PBS).
(§2) Primers specific for the Bax, Bcl-2 and Caspase-3 genes were designed using the primer blast (https://www.ncbi.nlm.nih.gov/tools/primer-blast/ accessed on 9 January 2023) software. The primers were used in the RT-qPCR analysis to amplify fragments of 100–200 bp in length (Table 11).
The RNeasy Mini Kit (Qiagen, Hilden, Germany) was used to extract the total RNA. The RNA purity, quality and quantity were checked using a Nanodrop 8000 spectrophotometer (Thermo Fisher Scientific, USA). […]

caspase-3 gene = experiment: qRT-PCR expressional level of caspase-3 gene; assay type: cell-based, human; conditions: 10 µg/mL, 24 h
Protocol: Therefore, in this study the expressional levels of caspase-3 as a major apoptosis effector were evaluated in 3a- and 3f-treated HCT-116 and LoVo cell cultures (10 µg/mL, for 24 h incubation), using qRT-PCR analysis.
as §1, §2
The RNeasy Mini Kit (Qiagen, Hilden, Germany) was used to extract the total RNA. The RNA purity, quality and quantity were checked using a Nanodrop 8000 spectrophotometer (Thermo Fisher Scientific, USA). The Hyperscript Kit (GeneAll, Seoul, Korea) and random hexamers (GeneAll, Seoul, Korea ) were used to reverse-transcript 1 µg of RNA from each sample into cDNA as described in the manufacturer’s protocol.
A QuantStudio 7Flex Detection System (Applied Biosystems, Thermo Fischer Scientific, Inc., USA) was used to measure the mRNA expression of Bax, Caspase-3 and Bcl-2. The reactions for the synthesis of cDNA were carried out using an iScript One-Step RT-PCR Kit with SYBR Green (cat no: 170–8892; Bio-Rad, Inc., Hercules, CA, USA). Briefly, primers (Table 10) were added to the reaction mixture at a final concentration of 10 pM. Thus, 5 µL of each cDNA sample were added to a […] PCR mixture consisting of 12.5 µL of 2 × iScript One-Step RT-PCR Kit with SYBR Green, 0.5 µL of primers for Bax, Caspase-3 and Bcl-2 as well as GAPDH (Macrogen, Seoul, Korea), and 7 µL RNase/DNase-free water (Qiagen, DE). The thermal cycling conditions for Bax, Caspase-3 and Bcl-2 were established as 5 min at 95 °C, followed by 40 cycles of 30 s at 95 °C and 30 s at 60 °C, and finally 10 s at 95 °C. The presence of a single melting temperature peak verified the specificity of each primer. The expression of a house-keeping gene, GAPDH, was used as an endogenous control for the current work.

HCT-116 carcinoma cells [1] = experiment: Annexin-V-FITC/PI flow cytometry, HCT-116; assay type: cell-based, human; conditions: 50 µg/mL, 48 h; for Early apoptotic cells (Annexin-V positive, PI negative): lower right quadrant; for Late apoptotic cells (Annexin-V and PI positive): upper right quadrant
Protocol: In order to examine the effect of compounds 3a and 3f on the apoptosis of HCT-116 and LoVo carcinoma cells, the Annexin-V-FITC probe was used and flow cytometry analyses were performed (Figure 7).
The percentages of the early apoptotic cells (Annexin-V positive and propidium iodide, PI negative) and late apoptotic cells (both Annexin-V and PI positive) were then calculated. Annexin V-PI staining was also performed to distinguish apoptotic and necrotic cell deaths.
The distribution of early and late apoptotic cells after treatment with compounds 3a and 3f was carried out using an Annexin V-FITC Apoptosis Detection Kit (BioVisionResearch Products—USA). HCT-116 and LoVo carcinoma cells were seeded in 60 mm^2 culture dishes and treated with the vehicles DMSO, and compounds 3a and 3f (50 µg/mL) for 48 h. Cells were then harvested, washed twice with PBS and resuspended in an Annexin-V binding buffer (BioVisionResearch Products—USA). Finally, the cells were stained with Annexin V-FITC and propidium iodide (PI). The fluorescent intensity of the stained cancer cells was determined using an FITC signal detector (usually FL1) and PI staining with the phycoerythrin emission signal detector (through quadrant statistics for necrotic and apoptotic cell populations).

HCT-116 carcinoma cells [2] = experiment: Cell cycle assay (PI flow cytometry), HCT-116; assay type: cell-based, human; conditions: 50 µg/mL, 48 h
Protocol: In the current study, the cell cycle distribution of the treated HCT-116 and LoVo carcinoma cells with compounds 3a and 3f was assessed by labeling the cell’s DNA with PI stain in order to determine if the induction of apoptosis in carcinoma cells could be related to the cell cycle arrest (Figure 8A–F). The intensity of the PI stain is proportional to the cell’s DNA content (Figure 9). […] The ability of the tested compounds (3a and 3f) to block the cell cycle progression in LoVo and HCT-116 cells confirmed their anticancer potential against these colon carcinoma cell lines and could explain the mechanism of the observed cytotoxicity.
Changes in cell cycle distribution induced by compounds 3a and 3f were analyzed using a flow cytometric analysis according to Nicoletti et al. 1991 [108] using a Propidium Iodide Flow Cytometry Kit for Cell Cycle Analysis (Abcam-UK). HCT-116 and LoVo carcinoma cells (5 × 10^4 cells/mL) were treated with DMSO as a negative control, and compounds 3a and 3f (50 µg/mL), for 48 h. After the centrifugation of the treated cells at 1800 rpm for 5 min, the pellet was washed twice with PBS. Then, the cells were fixed by mixing […] of 90% cold ethanol, and stained with propidium iodide (PI) for 1 h at 37 °C. […] The stained cells were analyzed for their DNA content using a BD FACSC flow cytometer.

α-amylase = experiment: In vitro α-amylase (AA) inhibition assay; conditions: mean ± SD of three replicates; for IC50: read-out: Mean IC50 α-Amylase (AA)
Protocol: Then, 180 µL of Labtest (the amylase substrate) was added and the samples were incubated for 8 min, followed by measuring the first reaction at 620 nm to obtain (X1). Afterwards, the reaction mixture was incubated for an additional 5 min at 37 °C; then, the second reaction was measured to obtain the final reading (X2). […] The results were expressed as IC50 µg/mL (as well as µM) and were determined from the standard curves.

SMILES	Expressional level of anti-apoptotic gene Bcl-2 (Bcl-2 gene) [fold]	Expression level of caspase-3 gene (upregulated) (caspase-3 gene; HCT-116, vs negative control) [fold]	Expression level of caspase-3 gene (upregulated) (caspase-3 gene; LoVo, vs negative control) [fold]	Early apoptotic cells (Annexin-V positive, PI negative) (HCT-116 carcinoma cells [1]) [%]	Late apoptotic cells (Annexin-V and PI positive) (HCT-116 carcinoma cells [1]) [%]	Cells in G1 phase (%DIP G1) (HCT-116 carcinoma cells [2]) [%]	Mean IC50 α-Amylase (AA) (α-amylase) [µg/mL]	IC50 (α-amylase) [µM]
O=c1c2cc(Cl)ccc2[nH]c(=S)n1-c1ccc([N+](=O)[O-])cc1 [Compound 3f, 6-Chloro-3-(4-nitro-phenyl)-2-thioxo-2,3-dihydro-1H-quinazolin-4-one]	0.345	6.071	6.9340	9.59	5.32	57.81	111.667 ± 3.512	335
O=c1c2cc(Cl)ccc2[nH]c(=S)n1-c1cccc(C(F)(F)F)c1 [Compound 3a, 6-Chloro-2-thioxo-3-(3-trifluoromethyl-phenyl)-2,3-dihydro-1H-quinazolin-4-one]	0.635	3.731	2.6026	14.6	6.56	53.51	124.333 ± 4.042	349
